# Results: patent publication US20250346592A1 (Celgene Corporation, priority 2022, published 2025)
# How the values were obtained:
# hPAD4 enzyme [1] = molecular target: T1, hPAD4 enzyme (Homo sapiens (Human), UniProt Q9UM07); test: RFMS1 assay (RapidFire mass spectrometry, BAEE substrate); type: biochemical; settings: 5 nM hPAD4, 250 μM BAEE, 30 min preincubation at 37° C., 90 min reaction; read-out: RFMS 1 IC50
# In short: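 hPAD4 (5 nM) preincubated 30 min at 37° C. with compound, then 250 μM BAEE for 90 min at 37° C. in pH 7.5 HEPES buffer with 50 μM calcium, 1 mM DTT, 5 μM TPEN. TCA quench, phenyl glyoxal derivatisation; citrulline product measured by RapidFire MS, normalised to internal standard; IC50 values.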
# hPAD4 enzyme [2] = molecular target: T1, hPAD4 enzyme; test: RFMS2 assay (RapidFire mass spectrometry, TSTGGRQGSHH peptide substrate); type: biochemical; settings: 35 nM recombinant human PAD4, 500 μM TSTGGRQGSHH peptide, 30 minutes at room temperature; read-out: RFMS 2 IC50
# In short: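 Recombinant human PAD4 (35 nM) with 500 μM TSTGGRQGSHH peptide in HEPES pH 7.4, 200 mM NaCl, 2 mM CaCl2, 5 mM DTT, 1.2% DMSO, 30 min at room temperature; 3-fold compound series, top 20 μM. Quenched with formic acid; substrate and citrullinated product quantified by RapidFire MRM mass spectrometry for IC50.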
# T1 sequence (Q9UM07 whole entry): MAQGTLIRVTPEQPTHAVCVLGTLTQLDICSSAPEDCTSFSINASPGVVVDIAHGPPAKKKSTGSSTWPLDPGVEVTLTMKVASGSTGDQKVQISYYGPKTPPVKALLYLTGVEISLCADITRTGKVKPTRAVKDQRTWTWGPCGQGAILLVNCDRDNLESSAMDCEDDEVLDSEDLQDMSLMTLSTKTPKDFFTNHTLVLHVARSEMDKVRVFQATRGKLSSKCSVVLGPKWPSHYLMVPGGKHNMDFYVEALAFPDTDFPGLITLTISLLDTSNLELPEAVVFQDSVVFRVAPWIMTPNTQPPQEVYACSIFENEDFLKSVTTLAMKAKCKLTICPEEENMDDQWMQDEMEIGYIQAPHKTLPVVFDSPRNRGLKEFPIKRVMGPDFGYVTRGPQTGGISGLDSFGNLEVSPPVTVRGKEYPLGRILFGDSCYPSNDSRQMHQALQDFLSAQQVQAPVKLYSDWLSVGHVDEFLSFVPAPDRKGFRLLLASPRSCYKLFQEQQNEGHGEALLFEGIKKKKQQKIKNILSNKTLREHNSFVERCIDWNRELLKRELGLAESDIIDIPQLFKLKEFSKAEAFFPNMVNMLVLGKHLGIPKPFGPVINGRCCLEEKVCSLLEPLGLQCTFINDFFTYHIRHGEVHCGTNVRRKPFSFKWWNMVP
SMILES,IC50 (hPAD4 enzyme [1]) [nM],IC50 (hPAD4 enzyme [2]) [nM]
"Cn1c(-c2cc3cccc(OCc4ccn[nH]4)c3n2CC2CC2)nc2cc3c(cc21)CCN(C[C@H](N)CF)C3=O [Example 174, (S)-2-(7-((1H-pyrazol-5-yl)methoxy)-1-(cyclopropyl-methyl)-1H-indol-2-yl)-6-(2-amino-3-fluoropropyl)-1-methyl-1,6,7,8-tetrahydro-5H-imidazo[4,5-g] isoquinolin-5-one]",11 to 100,11 to 100
"Cn1c(-c2cc3cccc(OCCn4ccnn4)c3n2CC2CC2)nc2cc3c(cc21)CCN(C[C@H](N)CF)C3=O [Example 181, (S)-2-(7-(2-(1H-1,2,3-triazol-1-yl)ethoxy)-1-(cyclopropylmethyl)-1H-indol-2-yl)-6-(2-amino-3-fluoropropyl)-1-methyl-1,6,7,8-tetrahydro-5H-imidazo[4,5-g]isoquinolin-5-one]",≤ 10,11 to 100
"CN1CC(COc2cccc3cc(-c4nc5cc6c(cc5n4C)CCN(C[C@H](N)CF)C6=O)n(CC4CC4)c23)CC1=O (stereo partly drawn) [Example 184, 6-((S)-2-amino-3-fluoropropyl)-2-(1-(cyclopropylmethyl)-7-((1-methyl-5-oxopyrrolidin-3-yl)methoxy)-1H-indol-2-yl)-1-methyl-1,6,7,8-tetrahydro-5H-imidazo[4,5-g]isoquinolin-5-one]",11 to 100,101 to 500
"Cn1c(-c2cc3cccc(OCCn4cnnn4)c3n2CC2CC2)nc2cc3c(cc21)CCN(C[C@H](N)CF)C3=O [Example 186, (S)-2-(7-(2-(1H-tetrazol-1-yl)ethoxy)-1-(cyclopropylmethyl)-1H-indol-2-yl)-6-(2-amino-3-fluoropropyl)-1-methyl-1,6,7,8-tetrahydro-5H-imidazo[4,5-g]isoquinolin-5-one]",≤ 10,11 to 100
"Cn1c(-c2cc3cccc(OC[C@@H]4CNC(=O)C4)c3n2CC2CC2)nc2cc3c(cc21)CCN(C[C@H](N)CF)C3=O [Example 190, 6-((S)-2-amino-3-fluoropropyl)-2-(1-(cyclopropylmethyl)-7-(((S)-5-oxopyrrolidin-3-yl)methoxy)-1H-indol-2-yl)-1-methyl-1,6,7,8-tetrahydro-5H-imidazo[4,5-g]isoquinolin-5-one]",≤ 10,11 to 100
"Cn1c(-c2cc3cccc(OCCc4ccno4)c3n2CC2CC2)nc2cc3c(cc21)CCN(C[C@H](N)CF)C3=O [Example 195, (S)-6-(2-amino-3-fluoropropyl)-2-(1-(cyclopropylmethyl)-7-(2-(isoxazol-5-yl)ethoxy)-1H-indol-2-yl)-1-methyl-1,6,7,8-tetrahydro-5H-imidazo[4,5-g]isoquinolin-5-one]",≤ 10,11 to 100
"Cn1c(-c2cc3cccc(OCCn4ccnc4)c3n2CC2CC2)nc2cc3c(cc21)CCN(C[C@H](N)CF)C3=O [Example 198, (S)-2-(7-(2-(1H-imidazol-1-yl)ethoxy)-1-(cyclopropylmethyl)-1H-indol-2-yl)-6-(2-amino-3-fluoropropyl)-1-methyl-1,6,7,8-tetrahydro-5H-imidazo[4,5-g]isoquinolin-5-one]",≤ 10,11 to 100
"Cn1c(-c2cc3cccc(OCCc4c[nH]nn4)c3n2CC2CC2)nc2cc3c(cc21)CCN(C[C@H](N)CF)C3=O [Example 199, (S)-2-(7-(2-(1H-1,2,3-triazol-4-yl)ethoxy)-1-(cyclopropyl-methyl)-1H-indol-2-yl)-6-(2-amino-3-fluoropropyl)-1-methyl-1,6,7,8-tetrahydro-5H-imidazo[4,5-g]isoquinolin-5-one]",≤ 10,11 to 100
"COC(=O)N(C)CCOc1cccc2cc(-c3nc4cc5c(cc4n3C)CCN(C[C@H](N)CF)C5=O)n(CC3CC3)c12 [Example 201, methyl (S)-(2-((2-(6-(2-amino-3-fluoropropyl)-1-methyl-5-oxo-5,6,7,8-tetrahydro-1H-imidazo[4,5-g]isoquinolin-2-yl)-1-(cyclopropylmethyl)-1H-indol-7-yl)oxy)ethyl)(methyl) carbamate]",≤ 10,101 to 500

# Continued, values first:
IC50 (hPAD4 enzyme [1]) [nM],IC50 (hPAD4 enzyme [2]) [nM],SMILES
≤ 10,11 to 100,"Cn1c(-c2cc3cccc(OCCc4cnoc4)c3n2CC2CC2)nc2cc3c(cc21)CCN(C[C@H](N)CF)C3=O [Example 204, (S)-6-(2-amino-3-fluoropropyl)-2-(1-(cyclopropylmethyl)-7-(2-(isoxazol-4-yl)ethoxy)-1H-indol-2-yl)-1-methyl-1,6,7,8-tetrahydro-5H-imidazo[4,5-g]isoquinolin-5-one]"
11 to 100,101 to 500,"Cn1c(-c2cc3cccc(OCCO)c3n2CC2CC2)nc2cc3c(cc21)CCN(C[C@H](N)CF)C3=O [Example 205, (S)-6-(2-amino-3-fluoropropyl)-2-(1-(cyclopropylmethyl)-7-(2-hydroxyethoxy)-1H-indol-2-yl)-1-methyl-1,6,7,8-tetrahydro-5H-imidazo[4,5-g]isoquinolin-5-one]"
≤ 10,11 to 100,"Cn1c(-c2cc3cccc(OC[C@@H]4CNC(=O)O4)c3n2CC2CC2)nc2cc3c(cc21)CCN(C[C@H](N)CF)C3=O [Example 206, (S)-5-(((2-(6-((S)-2-amino-3-fluoropropyl)-1-methyl-5-oxo-5,6,7,8-tetrahydro-1H-imidazo[4,5-g]isoquinolin-2-yl)-1-(cyclopropylmethyl)-1H-indol-7-yl)oxy)methyl)oxazolidin-2-one]"
11 to 100,101 to 500,"COC(=O)NCCOc1cccc2cc(-c3nc4cc5c(cc4n3C)CCN(C[C@H](N)CF)C5=O)n(CC3CC3)c12 [Example 207, methyl (S)-(2-((2-(6-(2-amino-3-fluoropropyl)-1-methyl-5-oxo-5,6,7,8-tetrahydro-1H-imidazo[4,5-g]isoquinolin-2-yl)-1-(cyclopropylmethyl)-1H-indol-7-yl)oxy)ethyl)carbamate]"
11 to 100,101 to 500,"COC(=O)N[C@@H](C)COc1cccc2cc(-c3nc4cc5c(cc4n3C)CCN(C[C@H](N)CF)C5=O)n(CC3CC3)c12 [Example 208, methyl ((S)-1-((2-(6-((S)-2-amino-3-fluoropropyl)-1-methyl-5-oxo-5,6,7,8-tetrahydro-1H-imidazo[4,5-g]isoquinolin-2-yl)-1-(cyclopropylmethyl)-1H-indol-7-yl)oxy)propan-2-yl)carbamate]"
11 to 100,11 to 100,"Cn1c(-c2cc3cccc(OCCn4cnnc4)c3n2CC2CC2)nc2cc3c(cc21)CCN(C[C@H](N)CF)C3=O [Example 210, (S)-2-(7-(2-(4H-1,2,4-triazol-4-yl)ethoxy)-1-(cyclopropyl-methyl)-1H-indol-2-yl)-6-(2-amino-3-fluoropropyl)-1-methyl-1,6,7,8-tetrahydro-5H-imidazo[4,5-g]isoquinolin-5-one]"
≤ 10,11 to 100,"C[C@@H](COc1cccc2cc(-c3nc4cc5c(cc4n3C)CCN(C[C@H](N)CF)C5=O)n(CC3CC3)c12)n1ccnc1 [Example 212, 2-(7-((S)-2-(1H-imidazol-1-yl)propoxy)-1-(cyclopropylmethyl)-1H-indol-2-yl)-6-((S)-2-amino-3-fluoropropyl)-1-methyl-1,6,7,8-tetrahydro-5H-imidazo[4,5-g]isoquinolin-5-one]"
≤ 10,101 to 500,"C[C@H](COc1cccc2cc(-c3nc4cc5c(cc4n3C)CCN(C[C@H](N)CF)C5=O)n(CC3CC3)c12)n1ccnc1 [Example 213, 2-(7-((R)-2-(1H-imidazol-1-yl)propoxy)-1-(cyclopropylmethyl)-1H-indol-2-yl)-6-((S)-2-amino-3-fluoropropyl)-1-methyl-1,6,7,8-tetrahydro-5H-imidazo[4,5-g]isoquinolin-5-one]"
11 to 100,101 to 500,"C[C@@H](Cn1ccnc1)Oc1cccc2cc(-c3nc4cc5c(cc4n3C)CCN(C[C@H](N)CF)C5=O)n(CC3CC3)c12 [Example 222, 2-(7-(((S)-1-(1H-imidazol-1-yl)propan-2-yl)oxy)-1-(cyclopropylmethyl)-1H-indol-2-yl)-6-((S)-2-amino-3-fluoropropyl)-1-methyl-1,6,7,8-tetrahydro-5H-imidazo[4,5-g]isoquinolin-5-one]"
≤ 10,101 to 500,"C[C@H](Cn1ccnc1)Oc1cccc2cc(-c3nc4cc5c(cc4n3C)CCN(C[C@H](N)CF)C5=O)n(CC3CC3)c12 [Example 223, 2-(7-(((R)-1-(1H-imidazol-1-yl)propan-2-yl)oxy)-1-(cyclopropylmethyl)-1H-indol-2-yl)-6-((S)-2-amino-3-fluoropropyl)-1-methyl-1,6,7,8-tetrahydro-5H-imidazo[4,5-g]isoquinolin-5-one]"
≤ 10,11 to 100,"Cn1c(-c2cc3cccc(/C=C/Cn4ccnc4)c3n2CC2CC2)nc2cc3c(cc21)CCN(C[C@H](N)CF)C3=O [Example 227, (S,E)-2-(7-(3-(1H-imidazol-1-yl)prop-1-en-1-yl)-1-(cyclopropylmethyl)-1H-indol-2-yl)-6-(2-amino-3-fluoropropyl)-1-methyl-1,6,7,8-tetrahydro-5H-imidazo[4,5-g]isoquinolin-5-one]"
≤ 10,101 to 500,"Cn1c(-c2cc3cccc(CCCn4ccnc4)c3n2CC2CC2)nc2cc3c(cc21)CCN(C[C@H](N)CF)C3=O [Example 228, (S)-2-(7-(3-(1H-imidazol-1-yl)propyl)-1-(cyclopropylmethyl)-1H-indol-2-yl)-6-(2-amino-3-fluoropropyl)-1-methyl-1,6,7,8-tetrahydro-5H-imidazo[4,5-g]isoquinolin-5-one]"
